{
  "source": "patent US20170080084A1",
  "about": "“OIL/SURFACTANT MIXTURES FOR SELF-EMULSIFICATION” (priority 2014, published 2017)",
  "origin": "cited, not measured here",
  "conditions": "readily available values",
  "data": [
    {"compound": "CCCCCCCCCCCCOS(=O)(=O)[O-].[Na+]", "note": "[SDS]", "values": [
      {"measurement": "HLB", "result": 40}
    ]},
    {"compound": "Sorbitan monooleate", "values": [
      {"measurement": "HLB", "result": 4.3}
    ]},
    {"compound": "polyoxyethylene (10) lauryl ether", "values": [
      {"measurement": "HLB", "result": 17}
    ]},
    {"compound": "polyoxyethylene cetostearyl ether", "values": [
      {"measurement": "HLB", "result": 13.5}
    ]},
    {"compound": "polyoxyethylene sorbitan monooleate [polysorbate 80]", "values": [
      {"measurement": "HLB", "result": 15}
    ]}
  ]
}
